Measured values from PubChem BioAssay AID651578 (Southern Research Specialized Biocontainment Screening …, 2012).
Activity calls are given as the source filed them. No rule for the calls is given here.

The compounds below were run on VEEV TC-83 virus titer reduction in cells (assay: VEEV TC-83 titer reduction, cell-based, secondary screen, TC-83 strain, set 4 (AID 651578)). Details: at 5 µM; stronger effect = lower value.

Row | SMILES | log virus titer change
1 | CCN1CCN(Cc2nc3ccc([N+](=O)[O-])cc3c(=O)n2-c2ccccc2F)CC1 | -3.36
2 | O=c1c2cc([N+](=O)[O-])ccc2nc(CN2CCNCC2)n1-c1ccsc1 | -0.997 (inactive)
3 | COc1ccc(-n2c(CN3CCNCC3)nc3ccc([N+](=O)[O-])cc3c2=O)cc1 | -7.41
4 | COc1cccc(-n2c(CN3CCNCC3)nc3ccc([N+](=O)[O-])cc3c2=O)c1 | -0.354 (inactive)
